Laboratory results taken from paper PMC7912279, “Preclinical Evaluation of ^99mTc-Labeled GRPR Antagonists maSSS/SES-PEG2-RM26 for Imaging of Prostate Cancer” (Pharmaceutics, 2021).

Key:
[1] = Biodistribution in NMRI mice for dosimetry estimation; assay type: in vivo; conditions: 40 pmol (30–500 kBq)
Method: Dosimetry estimation: To estimate the organs’ absorbed doses after iv injection of [^99mTc]Tc-maSSS-PEG2-RM26, NMRI mice were injected with 40 pmol (30–500 kBq) of the radiolabeled peptide and biodistribution was evaluated 0.5, 1, 3, 6, and 24 h pi. Sample collection and activity measurements were done as described above. To evaluate dosimetry in humans, uptake values in mice were upscaled using the well-established “percent kg/g method” [37] (Equation (1)):(%IA/organ)human = [(%IA/g)animal × (kg TBweight)animal × (g organ/(kg TBweight)human](1) where %IA-% injected activity.

[2] = Octanol-water distribution coefficient (logD); assay type: physicochemical; conditions: determined as previously described [35]
Method: To test the stability, the radiolabeled peptides were incubated with 300× molar excess of cysteine or with PBS at room temperature for 1 h. The octanol-water distribution coefficient (logD) was determined as previously described.

[3] = system: PC-3 xenografts; assay: Biodistribution in tumor bearing mice; assay type: in vivo; conditions: BALB/c nu/nu mice bearing PC-3 xenografts; for uptake, Blood / uptake, Bone / uptake, GI (gastrointestinal tract with content) / uptake, Intestine / uptake, Kidneys / uptake, Liver / uptake, Lung / uptake, Muscle / uptake, Pancreas / uptake, Spleen / uptake, Stomach / uptake, Tumor: 40 pmol (30 kBq), gamma counter, 4-7 mice; for Tumor-to-non-tumor ratio, Blood / Tumor-to-non-tumor ratio, Bone / Tumor-to-non-tumor ratio, Intestine / Tumor-to-non-tumor ratio, Kidneys / Tumor-to-non-tumor ratio, Liver / Tumor-to-non-tumor ratio, Lung / Tumor-to-non-tumor ratio, Muscle / Tumor-to-non-tumor ratio, Pancreas / Tumor-to-non-tumor ratio, Spleen / Tumor-to-non-tumor ratio, Stomach: 40 pmol
Method: Animals: All in vivo experiments were carried out on BALB/c nu/nu or NMRI mice provided by Scanbur A/S (Sollentuna, Sweden). All animal studies were approved by the Ethics Committee for Animal Research in Uppsala (Sweden), following the national legislation on the protection of laboratory animals (project identification code of approval 5/16, 26 February 2016). Prostate cancer xenografts expressing GRPR were established in BALB/c nu/nu mice by subcutaneous injection of PC-3 cell suspension in PBS (7 × 10^6 cells in 100 µL) four weeks before the experiment. Four to seven mice per data point were used in in vivo experiments, two mice per data point were used in metabolic analysis and SPECT/CT imaging experiments.
Biodistribution in tumor bearing mice: The comparison of biodistribution between the two radiolabeled peptides was evaluated in BALB/c nu/nu mice bearing PC-3 xenografts. Each mouse was injected with 40 pmol (30 kBq, mass of injected peptide was adjusted with unlabeled peptide) of either [^99mTc]Tc-maSSS-PEG2-RM26 or [^99mTc]Tc-maSES-PEG2-RM26. The mice were euthanized 3 h pi. Sample collection and activity measurements were done as described above. The biodistribution of [^99mTc]Tc-maSSS-PEG2-RM26 was further studied at 6 h pi following the same protocol. Additionally for [^99mTc]Tc-maSSS-PEG2-RM26, one group of xenograft bearing mice was injected with 40 pmol (30 kBq, mass of injected peptide was adjusted with unlabeled peptide) of labeled peptide with 5 nmol of unlabeled peptide and euthanized 3 h pi.

[4] = Metabolite analysis of urine and caecum content by radio-HPLC; assay type: in vivo; conditions: NMRI mice, 40 pmol, 3 h pi, two mice
Method: Metabolite Analysis: The NMRI mice were injected with 40 pmol of [^99mTc]Tc-maSSS-PEG2-RM26 (3 MBq) or [^99mTc]Tc-maSES-PEG2-RM26 (5.8 MBq). The mice were euthanized by CO2 inhalation 3 h pi, the content of the caecum and urine were collected and analyzed using HPLC as previously described. Centrifugation was performed using Centrifuge 5430 R (Eppendorf, Hamburg, Germany).

uptake, Blood ([1]; 0.5 h pi): 0.7 ± 0.1 % IA/g
uptake, Body ([1]; 0.5 h pi): 4.5 ± 0.9 %IA/sample
uptake, Bone ([1]; 0.5 h pi): 0.26 ± 0.09 % IA/g
uptake, Brain ([1]; 0.5 h pi): 0.031 ± 0.008 % IA/g
uptake, Caecum ([1]; 0.5 h pi): 0.34 ± 0.09 %IA/sample
uptake, Heart ([1]; 0.5 h pi): 0.27 ± 0.10 % IA/g
uptake, Kidneys ([1]; 0.5 h pi): 2.5 ± 0.6 % IA/g
uptake, Liver ([1]; 0.5 h pi): 4 ± 1 % IA/g
uptake, Lung ([1]; 0.5 h pi): 0.7 ± 0.3 % IA/g
uptake, Muscle ([1]; 0.5 h pi): 0.13 ± 0.03 % IA/g
uptake, Pancreas ([1]; 0.5 h pi): 7 ± 2 % IA/g
uptake, Small intestine ([1]; 0.5 h pi): 10 ± 2 %IA/sample
uptake, Spleen ([1]; 0.5 h pi): 1.1 ± 0.4 % IA/g
uptake, Stomach ([1]; 0.5 h pi): 2.2 ± 0.2 %IA/sample
uptake, Upper large intestine ([1]; 0.5 h pi): 0.4 ± 0.3 %IA/sample
uptake, Body ([1]; 1 h pi): 6 ± 1 %IA/sample
uptake, Bone ([1]; 1 h pi): 0.2 ± 0.1 % IA/g
uptake, Brain ([1]; 1 h pi): 0.04 ± 0.02 % IA/g
uptake, Caecum ([1]; 1 h pi): 0.9 ± 0.2 %IA/sample
uptake, Heart ([1]; 1 h pi): 0.23 ± 0.03 % IA/g
uptake, Kidneys ([1]; 1 h pi): 4 ± 1 % IA/g
uptake, Large intestine ([1]; 1 h pi): 0.6 ± 0.1 %IA/sample
uptake, Liver ([1]; 1 h pi): 6 ± 1 % IA/g
uptake, Lung ([1]; 1 h pi): 0.9 ± 0.4 % IA/g
uptake, Pancreas ([1]; 1 h pi): 13 ± 6 % IA/g
uptake, Small intestine ([1]; 1 h pi): 44 ± 10 %IA/sample
uptake, Spleen ([1]; 1 h pi): 2.4 ± 1.6 % IA/g
uptake, Stomach ([1]; 1 h pi): 6 ± 2 %IA/sample
uptake, Blood ([1]; 3 h pi): 0.38 ± 0.06 % IA/g
uptake, Body ([1]; 3 h pi): 4 ± 2 %IA/sample
uptake, Bone ([1]; 3 h pi): 0.27 ± 0.04 % IA/g
uptake, Brain ([1]; 3 h pi): 0.03 ± 0.01 % IA/g
uptake, Caecum ([1]; 3 h pi): 16 ± 4 %IA/sample
uptake, Heart ([1]; 3 h pi): 0.12 ± 0.01 % IA/g
uptake, Kidneys ([1]; 3 h pi): 1.5 ± 0.3 % IA/g
uptake, Large intestine ([1]; 3 h pi): 3.3 ± 3.5 %IA/sample
uptake, Liver ([1]; 3 h pi): 2.5 ± 0.4 % IA/g
uptake, Lung ([1]; 3 h pi): 0.44 ± 0.07 % IA/g
uptake, Muscle ([1]; 3 h pi): 0.061 ± 0.006 % IA/g
uptake, Pancreas ([1]; 3 h pi): 3.2 ± 0.7 % IA/g
uptake, Small intestine ([1]; 3 h pi): 9 ± 3 %IA/sample
uptake, Spleen ([1]; 3 h pi): 2 ± 1 % IA/g
uptake, Stomach ([1]; 3 h pi): 5 ± 1 %IA/sample
uptake, Upper large intestine ([1]; 3 h pi): 5.2 ± 5.1 %IA/sample
uptake, Blood ([1]; 6 h pi): 0.30 ± 0.07 % IA/g
uptake, Body ([1]; 6 h pi): 2.8 ± 0.2 %IA/sample
uptake, Bone ([1]; 6 h pi): 0.18 ± 0.03 % IA/g
uptake, Brain ([1]; 6 h pi): 0.03 ± 0.01 % IA/g
uptake, Caecum ([1]; 6 h pi): 18 ± 3 %IA/sample
uptake, Heart ([1]; 6 h pi): 0.17 ± 0.08 % IA/g
uptake, Kidneys ([1]; 6 h pi): 1.3 ± 0.3 % IA/g
uptake, Large intestine ([1]; 6 h pi): 30 ± 13 %IA/sample
uptake, Liver ([1]; 6 h pi): 1.1 ± 0.3 % IA/g
uptake, Lung ([1]; 6 h pi): 0.3 ± 0.1 % IA/g
uptake, Muscle ([1]; 6 h pi): 0.05 ± 0.03 % IA/g
uptake, Small intestine ([1]; 6 h pi): 2.5 ±0.8 %IA/sample
uptake, Spleen ([1]; 6 h pi): 0.6 ± 0.5 % IA/g
uptake, Stomach ([1]; 6 h pi): 3.2 ±0.4 %IA/sample
uptake, Upper large intestine ([1]; 6 h pi): 14 ± 1 %IA/sample
uptake, Blood ([1]; 24 h pi): 0.030 ± 0.006 % IA/g
uptake, Body ([1]; 24 h pi): 0.27 ± 0.05 %IA/sample
uptake, Bone ([1]; 24 h pi): 0.04 ± 0.02 % IA/g
uptake, Brain ([1]; 24 h pi): 0.006 ± 0.004 % IA/g
uptake, Caecum ([1]; 24 h pi): 0.3 ± 0.2 %IA/sample
uptake, Heart ([1]; 24 h pi): 0.021 ± 0.003 % IA/g
uptake, Kidneys ([1]; 24 h pi): 0.46 ± 0.08 % IA/g
uptake, Large intestine ([1]; 24 h pi): 0.05 ± 0.03 %IA/sample
uptake, Liver ([1]; 24 h pi): 0.39 ± 0.05 % IA/g
uptake, Lung ([1]; 24 h pi): 0.09 ± 0.04 % IA/g
uptake, Muscle ([1]; 24 h pi): 0.006 ± 0.003 % IA/g
uptake, Pancreas ([1]; 24 h pi): 0.10 ± 0.02 % IA/g
uptake, Small intestine ([1]; 24 h pi): 0.10 ± 0.05 %IA/sample
uptake, Spleen ([1]; 24 h pi): 0.37 ± 0.09 % IA/g
uptake, Stomach ([1]; 24 h pi): 0.2 ± 0.1 %IA/sample
uptake, Upper large intestine ([1]; 24 h pi): 0.05 ± 0.01 %IA/sample
logD [2]: -0.6
uptake, Blood ([3]; 3 h pi): 0.09 ± 0.04 % IA/g
uptake, Bone ([3]; 3 h pi): 0.04 ± 0.02 % IA/g
uptake, GI (gastrointestinal tract with content) ([3]; 3 h pi): 56 ± 3 % IA
uptake, Intestine ([3]; 3 h pi): 3 ± 1 % IA/g
uptake, Kidneys ([3]; 3 h pi): 0.7 ± 0.4 % IA/g
uptake, Liver ([3]; 3 h pi): 3 ± 1 % IA/g
uptake, Lung ([3]; 3 h pi): 0.12 ± 0.03 % IA/g
uptake, Muscle ([3]; 3 h pi): 0.04 ± 0.02 % IA/g
uptake, Pancreas ([3]; 3 h pi): 6.1 ± 0.8 % IA/g
uptake, Spleen ([3]; 3 h pi): 0.12 ± 0.04 % IA/g
uptake, Stomach ([3]; 3 h pi): 1.4 ± 0.3 % IA/g
uptake, Tumor ([3]; 3 h pi): 7 ± 2 % IA/g
uptake, Blood ([3]; 6 h pi): 0.056 ± 0.009 % IA/g
uptake, Bone ([3]; 6 h pi): 0.02 ± 0.02 % IA/g
uptake, GI (gastrointestinal tract with content) ([3]; 6 h pi): 26 ± 6 % IA
uptake, Intestine ([3]; 6 h pi): 0.4 ± 0.2 % IA/g
uptake, Kidneys ([3]; 6 h pi): 0.59 ± 0.06 % IA/g
uptake, Liver ([3]; 6 h pi): 0.68 ± 0.08 % IA/g
uptake, Lung ([3]; 6 h pi): 0.20 ± 0.10 % IA/g
uptake, Muscle ([3]; 6 h pi): 0.012 ± 0.004 % IA/g
uptake, Pancreas ([3]; 6 h pi): 0.98 ± 0.08 % IA/g
uptake, Spleen ([3]; 6 h pi): 0.06 ± 0.01 % IA/g
uptake, Stomach ([3]; 6 h pi): 0.9 ± 0.2 % IA/g
uptake, Tumor ([3]; 6 h pi): 3 ± 1 % IA/g
Tumor-to-non-tumor ratio, Blood ([3]; 3 h pi): 97 ± 56
Tumor-to-non-tumor ratio, Bone ([3]; 3 h pi): 177 ± 79
Tumor-to-non-tumor ratio, Intestine ([3]; 3 h pi): 3 ± 1
Tumor-to-non-tumor ratio, Kidneys ([3]; 3 h pi): 14 ± 9
Tumor-to-non-tumor ratio, Liver ([3]; 3 h pi): 3 ± 2
Tumor-to-non-tumor ratio, Lung ([3]; 3 h pi): 65 ± 20
Tumor-to-non-tumor ratio, Muscle ([3]; 3 h pi): 188 ± 32
Tumor-to-non-tumor ratio, Pancreas ([3]; 3 h pi): 1.2 ± 0.4
Tumor-to-non-tumor ratio, Spleen ([3]; 3 h pi): 62 ± 14
Tumor-to-non-tumor ratio, Stomach ([3]; 3 h pi): 5 ± 2
Tumor-to-non-tumor ratio, Blood ([3]; 6 h pi): 57 ± 22
Tumor-to-non-tumor ratio, Bone ([3]; 6 h pi): 287 ± 232
Tumor-to-non-tumor ratio, Intestine ([3]; 6 h pi): 9 ± 4
Tumor-to-non-tumor ratio, Kidneys ([3]; 6 h pi): 5 ± 2
Tumor-to-non-tumor ratio, Liver ([3]; 6 h pi): 5 ± 2
Tumor-to-non-tumor ratio, Lung ([3]; 6 h pi): 18 ± 8
Tumor-to-non-tumor ratio, Muscle ([3]; 6 h pi): 270 ± 67
Tumor-to-non-tumor ratio, Pancreas ([3]; 6 h pi): 3 ± 1
Tumor-to-non-tumor ratio, Spleen ([3]; 6 h pi): 50 ± 16
Tumor-to-non-tumor ratio, Stomach ([3]; 6 h pi): 3 ± 1
intact radiolabeled peptide in urine and gastrointestinal (caecum) content [4]: no intact radiolabeled peptide
Structure (SMILES): CC(C)C[C@H](NC(=O)C[C@H](O)[C@H](CC(C)C)NC(=O)[C@H](Cc1c[nH]cn1)NC(=O)CNC(=O)[C@@H](NC(=O)[C@H](C)NC(=O)[C@H](Cc1c[nH]c2ccccc12)NC(=O)[C@H](CCC(N)=O)NC(=O)[C@@H](Cc1ccccc1)NC(=O)COCCOCCNC(=O)[C@H](CO)NC(=O)[C@H](CO)NC(=O)[C@H](CO)NC(=O)CS)C(C)C)C(N)=O [[^99mTc]Tc-maSSS-PEG2-RM26, metal not drawn]
